Data from patent US20050079176A1, “Treating stress response with chemokine receptor ccr5 modulators” (priority 2002, published 2005).
Values joined by “and” are separate entries in the source; they are usually repeats but may differ in a detail not shown here. Equal values may be shown once. “Also recorded” adds a separate entry of the source.

Key:
[1] = system: IL6 mRNA expression in RANTES-stimulated macrophages; test: Cytokine mRNA expression (TaqMan) in RANTES-stimulated human macrophages: IL6; assay type: cell-based; conditions: RANTES 250 nM
Procedure: (§1) Human monocytes were isolated white blood cells concentrated from units of blood (i.e., leukopaks) from normal donors. To enhance CCR5 expression, the monocytes were cultured under suspension conditions in Teflon jars for 2 days in media supplemented with 12% fetal bovine serum. 10^6 cells were seeded and allowed to attach for over 2 hours in 6-well tissue culture plates. Cells were pre-incubated with either dimethylsulfoxide (DMSO; vehicle control) or Compound A at various concentrations for 1 hour, after which RANTES (the CCR5 agonist/ligand; Pepro Tech Inc.) was added at 250 nM, or, alternatively, media was added as a control. The cells were incubated at 37° C. for 24 hours, after which the media were removed and centrifuged to precipitate the non-adherent cells. Both the adhered and non-adhered cells were lysed and subjected to mRNA isolation, and the mRNA isolate was analyzed for cytokine expression by quantitative real time PCR (TaqMan). The relative mRNA-fold induction of cytokine gene expression in the RANTES-stimulated macrophages was calculated relative to day 2 non-stimulated, non-treated controls (i.e. fold induction=1 on day 2 for controls), as well as fold mRNA induction relative to vehicle (DMSO) (0 nM) control RANTES stimulated cells.

[2] = target: T1, CCR5 receptor (Macaca fascicularis, UniProt P61814); test: Receptor occupancy corresponding to plasma concentration; assay type: binding; conditions: at a concentration of 100 nM
T1 construct: endogenous in cells; host or cells: cynomolgus monkey (in vivo, CCR5-bearing leukocytes)

[3] = system: IL8; test: Cytometric Bead Array Human Inflammation Kit, serum/plasma on day of explant: IL8; assay type: in vivo, cynomologous monkeys; conditions: Compound A-treated monkeys
Procedure: (§2) Serum and plasma samples taken from the cynomologous monkeys in Example 1 on the day of explant (i.e., the day of graft rejection) were analyzed using the BD Pharmingen Cytometric Bead Array Human Inflammation Kit, which can measure IL1-β, IL6, IL8, IL10, IL12p70 and TNF-α. Reagents to detect IL6, IL8 and TNF-α have been shown by the manufacturer to cross react with rhesus and cynomologus monkey proteins. At the time of the assay, reagents to measure IL1-beta and IL12p70 had not yet been tested for cross reactivity to non-human primate proteins.
Samples were assayed in the manner described in the manufacturer's protocol booklet; i.e., “Human Inflammation Kit—Instruction Manual” (BD Biosciences, Cat. No. 551811, pdf copy available at www.bdbiosciences.com). Briefly, assay standards were reconstituted with assay diluent and diluted in two fold steps by serial dilution. Capture beads were mixed and distributed into an appropriate number of 12×75 mm polystyrene tubes. Standards or samples were added to the tubes and incubated in the dark at room temperature for 1.5 hours. The incubated tubes were washed once and phycoerythrin (PE)-labeled detection antibody reagent was added. Samples were again incubated in the dark at room temperature for 1.5 hours. […] Flow cytometer data was acquired using a Becton Dickinson FACSCalibur and analyzed with Becton Dickinson CBA Software.

[4] = system: IL1-beta mRNA expression in RANTES-stimulated macrophages; test: Cytokine mRNA expression (TaqMan) in RANTES-stimulated human macrophages: IL1-beta; assay type: cell-based; conditions: RANTES 250 nM
Procedure: as §1

[5] = system: Cynomolgus macaques (Macaca fascicularis); test: Fever suppression after cardiac allotransplantation (telemetry body temperature, behaviour); assay type: in vivo; conditions: for monkeys that did not develop a fever (temperature greater than 38.5° C.): while recovering from transplantation, seven monkeys treated with CCR5 antagonist (alone or with cyclosporin)
[6] = system: IL6; test: Cytometric Bead Array Human Inflammation Kit, serum/plasma on day of explant: IL6; assay type: in vivo, cynomologous monkeys
Procedure: as §2
Samples were assayed in the manner described in the manufacturer's protocol booklet; i.e., “Human Inflammation Kit—Instruction Manual” (BD Biosciences, Cat. No. 551811, pdf copy available at www.bdbiosciences.com). Briefly, assay standards were reconstituted with assay diluent and diluted in two fold steps by serial dilution. Capture beads were mixed and distributed into an appropriate number of 12×75 mm polystyrene tubes. Standards or samples were added to the tubes and incubated in the dark at room temperature for 1.5 hours. The incubated tubes were washed once and phycoerythrin (PE)-labeled detection antibody reagent was added. Samples were again incubated in the dark at room temperature for 1.5 hours. After one final wash, samples were resuspended in 300 uL of wash buffer. Flow cytometer data was acquired using a Becton Dickinson FACSCalibur and analyzed with Becton Dickinson CBA Software.

[7] = Plasma trough concentrations by LC-MS/MS; assay type: in vivo, Macaca fascicularis; conditions: cynomolgus plasma, Compound A i.v. b.i.d.
[8] = system: CCR5+ cells; test: Double-label immunofluorescence microscopy of leukocytes infiltrating rejecting allografts; assay type: in vivo, Macaca fascicularis; conditions: in association with CCR5 blockade
Text: Double-label immunofluorescence microscopy using antibodies specific for CD3, CD68, CD11b, CCR5 and CXCR3 was used to characterize leukocyte populations infiltrating acutely rejecting (days 4, 6) cynomolgus cardiac allografts. CCR5 and CXCR3 are prominent on monocytes/macrophages and to a lesser extent on T-cells in rejecting cynomolgus heart allografts. Co-localization of CCR5 and CXCR3 to the same cells was common, particularly on the […] monocyte/macrophage population. Infiltration of CCR5+ cells was inhibited in association with CCR5 blockade. Graft failure was identified by a decrease in heart rate and ST elevation (associated with ischemia) on EKG and a decrease in arterial line pressure. […] (Note: n=7 refers to the data for the 3 control (i.e., saline) monkeys in this experiment plus data for 4 animals from a historic database that were scored as controls in which cyno cardiac allografts were rejected in the absense of immunosupression in a manner identical to the three controls in this experiment.)

[9] = system: IL6; test: Serum IL6 by DuoSet ELISA pre and post heterotopic heart transplant; assay type: in vivo, cynomolgus monkeys
Procedure: IL1β and IL6 can be measured using the DuoSet ELISA development kits from R&D Systems (Minneapolis, Minn.), following the directions of the manufacturer. Briefly, plates are coated with capture antibody [mouse anti-human IL1β (2 μg/ml) or mouse anti-human IL6 (4 μg/ml)] and detection antibodies are used at 100 ng/ml (biotinylated goat anti-human IL1β) or 200 ng/ml (biotinylated goat anti-human IL6). Standards are prepared with recombinant protein (3.9-250 pg/ml for IL1β and 4.7-300 pg/ml for IL6). Streptavidin conjugated to horseradish peroxidase and H2O2/tetramethylbenzidine are used for color development. Optical density (OD) is measured at 450 nm, with correction at 570 nm.
Serum samples were taken from the cynomolgus monkeys in Example 1 at various time points pre- and post-transplantation. The samples were diluted 1:2, in PBS/0.1% BSA/0.05% Tween 20. (PBS=phosphate buffered saline; BSA=bovine serum albumin.) IL6 levels (pg/ml) in pre and post heterotopic heart transplant in serum from the cynomolgus monkeys treated with Compound A were determined obtained in accordance with the above-described procedure.

[10] = system: cynomolgus cardiac allografts; test: Cardiac allograft survival / graft function after heterotopic transplantation; assay type: in vivo, Macaca fascicularis
Text: Cynomolgus macaques (Macaca fascicularis), weighing 2.4-4.7 kg, and ranging in estimated age from 2.2-5.5 years were selected as organ recipients. Donors were matched to recipients by AB blood type compatibility as tested by New York University, Nelson Institute of Environmental Medicine, Tuxedo, N.Y. MHC class II mismatch was assured by a stimulation index (SI)>3 in paired animals in unidirectional mixed lymphocyte reaction (MLR) using potential donor lymphocytes as stimulators and potential recipient peripheral blood mononuclear cells (PBMCs) as responders. Animals were matched by assigning pairs with maximal MLR response within groups of blood type compatible animals.
Donor operation: After systemic heparinization (70 units/kg, Elkins-Sinn Inc., Cherry Hill, N.J.) and collection of donor blood during equivolemic saline infusion, diastolic arrest of the donor heart was induced with University of Wisconsin organ preservation solution (15-20 cc/kg, 4° C.) via the aortic root. The heart was explanted and prepared: The mitral valve was rendered incompetent surgically, to prevent left ventricular distention, and an atrial septal defect was created by excising the fossa ovalis, to allow blood entering the left heart through the thebesian circulation to transit to and be ejected from the right heart.
Recipient operation: All recipient animals underwent traditional non-working intraabdominal cardiac allograft transplantation using a single clamp technique, wherein the donor aorta was anastomosed end-to-side to the infrarenal abdominal aorta, and the donor pulmonary artery was anastomosed to the adjacent vena cava. Heparin (70 Units/kg) (a Unit is equivalent to 3 mg/kg of body weight) was administered to the recipient prior to clamp placement. A silicon central venous catheter was introduced via the internal jugular vein, and tunneled to exit between the scapulae. Catheters were attached to swivel connection systems, and animals placed in protective cloth jackets incorporating a swiveling system which protected venous access.
Graft function and body temperature were assessed twice daily by monitoring with a fully implantable telemetry device (Data Sciences International, St. Paul, Minn.) (electrocardiogram (EKG), right ventricular pressure and animal body temperature) implanted at the time of transplantation. Confirmatory abdominal ultrasounds were performed at the time of protocol biopsies and whenever an examiner appreciated decreased contractility, if EKG voltage or rate (<120 beats per minute) was decreased, or if developed pulse pressure (delta P) in the graft was decreased. Cardiac biopsies were performed by protocol on postoperative days 4, 7, 14, through a laparotomy incision using a core biopsy needle. Graft failure was defined as loss of palpable graft activity, with ultrasound confirmation of weak or absent myocardial contractility. Failed grafts were explanted promptly and examined histologically.
Three animals received Compound A as monotherapy at a dose of 5 mg/kg, two animals received Compound A as monotherapy at a dose of 10 mg/kg, and three animals received an equivalent volume of saline (control). Compound A was administered intravenously twice daily at 12 hour intervals (i.e., b.i.d.) starting at transplant. […] The dose on the first day was 12.5 mg/kg, then 10 mg/kg daily for 7 days, then 5 mg/kg daily for 7 days, then 2.5 mg/kg/day until graft rejection or animal sacrifice.

[11] = Homo sapiens, Macrophage, Compound A 10 nM, 24 hours, mean ± SD
[12] = Homo sapiens, Macrophage, Compound A 30 nM, 24 hours, mean ± SD
[13] = Homo sapiens, Macrophage, Compound A 300 nM, 24 hours, mean ± SD

CCn1nc(Cc2ccccc2)cc1C1CCN(C[C@H]2C[C@H](N(C)[C@@H](C(=O)O)C(C)C)C[C@@H]2c2cccc(F)c2)CC1 [Compound A]
inhibition at 0.003 µM ([1]; Homo sapiens, Macrophage, Compound A 3 nM, 24 hours): 43%
inhibition at 0.01 µM [1, 11]: 16.1%
inhibition at 0.03 µM [1, 12]: 65.9%
inhibition at 0.1 µM ([1]; Homo sapiens, Macrophage, Compound A 100 nM, 24 hours): 67.1%
inhibition at 0.3 µM [1, 13]: 85.9%
effect on IL6 mRNA up-regulation by RANTES ([1]; human macrophages): diminish IL1-β and IL6 up-regulation significantly; also recorded: dose-dependent
receptor occupancy at 0.1 µM [2]: ~90%
IL8 cytokine levels at the time of graft rejection relative to CsA-only treated monkeys [3]: did not indicate suppression of IL8 levels
inhibition at 0.003 µM ([4]; Homo sapiens, Macrophage, Compound A 3 nM, 24 hours, mean ± SD): 37.6%
inhibition at 0.01 µM [4, 11]: 50.1%
inhibition at 0.03 µM [4, 12]: 59%
inhibition at 0.1 µM ([4]; Homo sapiens, Macrophage, Compound A 100 nM, 24 hours, mean ± SD): 76.8%
inhibition at 0.3 µM [4, 13]: 80.6%
effect on IL1-β mRNA up-regulation by RANTES ([4]; human macrophages): diminish IL1-β and IL6 up-regulation significantly; also recorded: dose-dependent
malaise ([5]; after cardiac allotransplantation, in contrast to the five control animals): not to exhibit malaise
symptoms of abdominal tenderness ([5]; after transplant and during rejection of the graft): did not exhibit any symptoms of abdominal tenderness
recovery from surgery (how quickly normal activity levels resumed) ([5]; despite additional procedures on days 4 and 7-8): recovered more quickly from surgery
average temperature ([5]; first three days after allograft implantation, six of the seven animals treated with Compound A (5 or 10 mg/kg b.i.d. i.v., alone or with CsA)): below 37.5 °C
average temperature difference versus control monkeys (saline, no immunosuppressive therapy) ([5]; first three days after surgery): about one degree lower
average temperature difference versus cyclosporin-only-treated animals ([5]; first three days after surgery): one half degree lower; also recorded: about 0.5 °C
average temperature over the first three days after surgery ([5]; monkeys with cardiac allografts, control (saline) ca. 38.5° C.): circa 37.5 °C
animals in which individual temperature elevations reached 38.5° C. on any occasion ([5]; of the seven animals treated with Compound A): 3
monkeys that did not develop a fever (temperature greater than 38.5° C.) [5]: six of seven
monkeys that did not develop a fever (temperature greater than 38.5° C.) ([5]; listed as CCR5 antagonist): Six out of the seven
IL6 on day of explant ([6]; M308, Compound A monotherapy at 10 mg/kg/day b.i.d., explant day 8): 58 pg/mL
IL6 on day of explant ([6]; M627, Compound A 10 mg/kg b.i.d., steroid rescue day 9, combined therapy with CsA 43 days, Compound A monotherapy from day 52, explant day 85): 20 pg/mL
IL6 cytokine levels at the time of graft rejection relative to monkeys treated only with CsA ([6]; monkeys treated with Compound A): suppressed
trough plasma concentration (levels fell below target range at trough) [7]: < 100 nM
Infiltration of CCR5+ cells into cardiac allografts [8]: inhibited
IL6 level, Day 0 Post ([9]; serum post-transplantation, Compound A monotherapy 10 mg/kg/day b.i.d., M308, M627): 63.7 pg/mL and 106.2 pg/mL
IL6 level, Day 0 Pre ([9]; serum pre-transplantation, animals M308, M627 later given Compound A monotherapy 10 mg/kg/day b.i.d.): 4.6 pg/mL and 3.4 pg/mL
IL6 level, Day 8 ([9]; serum, Compound A monotherapy 10 mg/kg/day b.i.d., M308): 24.3 pg/mL
Graft survival ([10]; Compound A monotherapy 5 mg/kg i.v. b.i.d., n=3, controls 6±0.4 days (n=7), p=0.05): 8.3 ± 0.6 days
Explant Day (day of graft rejection) ([10]; M308, Compound A monotherapy at 10 mg/kg/day b.i.d.): 8
Explant Day (day of graft rejection) ([10]; M627, Compound A 10 mg/kg b.i.d., rescued day 9 with bolus steroids, combined therapy with CsA 43 days, from day 52 Compound A monotherapy): 85
day to which vigorous graft function persisted ([10]; one animal: Compound A alone 10 mg/kg b.i.d., rescued day 9 with bolus steroids, combined therapy with CsA 43 days, CsA stopped day 52, Compound A continued): 83 days and 78 days
